Assay results taken from US10738007B2, “Amide compounds as kinase inhibitors, compositions and methods of treatment” (TRANSLATIONAL DRUG DEVELOPMENT, LLC, priority 2016, dated 2020).

Experiments:
MV411 cell line = assay: Cell viability assay ([…]-GLO), MV411; type: cell-based; settings: for IC50: Homo sapiens, MV4-11, MV411 (ITD-FLT3+), 72 hours treatment; for FLT3-ITD+ Selectivity (K562/MV411): ratio K562/MV411
Procedure: Cell viability was measured by the […] -GlO® cell viability assay from Promega (Madison, Wis.). The […] -GlO Luminescent Cell Viability Assay is a homogeneous method to determine the number of viable cells in culture based on quantitation of the ATP present, which signals the presence of metabolically active cells. Following treatment, […] -GlO® is added to treatment wells and incubated at 37° C. Luminescence values were measured at using a Molecular Devices Spectramax microplate reader.

ROCK2 = ROCK2 (Homo sapiens (Human), UniProt O75116); assay: ROCK2 kinase inhibition assay (peptide phosphorylation, LABCHIP 3000); type: biochemical; settings: 7 μM ATP, 2.5 nM ROCK2, 3 hours at 25° C.
Procedure: The peptide is phosphorylated by the protein kinase ROCK1 or ROCK2. The ROCK1 or ROCK2 enzyme, substrate, and cofactors (ATP and Mg^2+) are combined in a well of a microtiter plate and incubated for 3 hours at 25° C. in the presence or absence of an inhibitor compound. At the end of the incubation, the reaction is quenched by the addition of an EDTA-containing buffer. The substrate and product are separated and quantified electrophoretically using the microfluidic-based LABCHIP® 3000 Drug Discovery System from Caliper Life Sciences (Hopkinton, Mass.).
The components of the assay mixture are:
10 μM Sodium Orthovanadate
10 LM Beta-Glycerophosphate
5 μM ATP (for ROCK1) or 7 μM ATP (for ROCK2)
3 nM ROCK1 or 2.5 nM ROCK2 enzyme
Substrate and product peptides present in each sample are separated electrophoretically using the LABCHIP® 3000 capillary electrophoresis instrument. […] Change in the relative fluorescence intensity of the substrate and product peaks is the parameter measured reflecting enzyme activity. Capillary electrophoregramms (RDA acquisition files) are analyzed using HTS Well Analyzer software (Caliper Life Sciences, Hopkinton, Mass.). The kinase activity in each sample is determined as the product to sum ratio (PSR): P/(S+P), where P is the peak height of the product peptide and S is the peak height of the substrate peptide. For each compound, enzyme activity is measured at various concentrations (12 concentrations of compound spaced by 3× dilution intervals). Negative control samples (0%-inhibition in the absence of inhibitor) and positive control samples (100%-inhibition in the presence of 20 mM EDTA) are assembled in replicates of four and are used to calculate %-inhibition values for each compound at each concentration. Percent inhibition (Pinh) is determined using the following equation: Pinh=(PSRO %−PSRinh)/(PSRO %−PSR100%)*100
where PSRinh is the product sum ratio in the presence of inhibitor, PSRO % is the average product sum ratio in the absence of inhibitor, and PSR100% is the average product sum ratio in 100%-inhibition control samples. The IC50 values of inhibitors are determined by fitting the inhibition curves (Pinh versus inhibitor concentration) by the 4-parameter sigmoidal dose-response model using XLfit 4 software (IBDS).

K562 cell line = assay: Cell viability assay ([…]-GLO), K562; type: cell-based; settings: Homo sapiens; K562 (does not express ITD-FLT3), 72 hours treatment
Procedure: Cell viability in the presence of varying concentrations of the above listed compounds at different time points was used to assess cytotoxicity and the effect of the compounds on cell proliferation.
Cell viability was measured by the […]-GlO® cell viability assay from Promega (Madison, Wis.). The […]-GlO Luminescent Cell Viability Assay is a homogeneous method to determine the number of viable cells in culture based on quantitation of the ATP present, which signals the presence of metabolically active cells. Following treatment, […]-GlO® is added to treatment wells and incubated at 37° C. Luminescence values were measured at using a Molecular Devices Spectramax microplate reader.
Cells were grown to 70% confluency, trypsinized, counted, and seeded in 96 well flat-bottom plates at a final concentration of 2.5×10^3-5×10^3 cells/well (Day 0). Cells were allowed to incubate in growth media for 24 hours. Treatment with the test agents or standard agents began on Day 1 and continued for 72 hours. At the 72-hour time point, treatment containing media was removed. Viable cell numbers were quantified by the […]-GLO® cell viability assay as described above. Results from these studies were used to calculate an IC50 value (concentration of drug that inhibits cell growth by 50 percent of control) for each compound.
For single agent and combination studies, data from each experiment was collected and expressed as % Cell Growth using the following calculation: % Cell Growth=(ftest/fvehicle)×100
Where ftest is the luminescence of the tested sample, and fvehicle is the luminescence of the vehicle in which the drug is dissolved. Dose response graphs and IC50 values were generated using Prism 6 software (GraphPad) using the following equation: Y=(Top−Bottom)/(1+10^((logIC50-X)−HillSlope))
Where X is the logarithm of the concentration and Y is the response. Y starts at the Bottom and goes to the Top with a sigmoid shape.
The experiments also evaluated the selectivity of the compounds for inhibiting growth of cancer cells carrying a mutation in the Flt3 gene. The MV411 cell line expresses the mutant allele of Flt3 with internal tandem duplications (ITD) of the gene. See Quentmeier et al., “FLT3 Mutations in Acute Myeloid Leukemia Cell Lines,” Leukemia 17(1), 2003, 120-124. […] See Grafone et al., “Monitoring of FLT3 Phosphorylation Status and Its Response to Drugs By Flow Cytometry in AML Blast Cells,” Hematol Oncol. 26(3), 2008, 159-166.

Sequence of ROCK2 (O75116 whole entry, species assumed): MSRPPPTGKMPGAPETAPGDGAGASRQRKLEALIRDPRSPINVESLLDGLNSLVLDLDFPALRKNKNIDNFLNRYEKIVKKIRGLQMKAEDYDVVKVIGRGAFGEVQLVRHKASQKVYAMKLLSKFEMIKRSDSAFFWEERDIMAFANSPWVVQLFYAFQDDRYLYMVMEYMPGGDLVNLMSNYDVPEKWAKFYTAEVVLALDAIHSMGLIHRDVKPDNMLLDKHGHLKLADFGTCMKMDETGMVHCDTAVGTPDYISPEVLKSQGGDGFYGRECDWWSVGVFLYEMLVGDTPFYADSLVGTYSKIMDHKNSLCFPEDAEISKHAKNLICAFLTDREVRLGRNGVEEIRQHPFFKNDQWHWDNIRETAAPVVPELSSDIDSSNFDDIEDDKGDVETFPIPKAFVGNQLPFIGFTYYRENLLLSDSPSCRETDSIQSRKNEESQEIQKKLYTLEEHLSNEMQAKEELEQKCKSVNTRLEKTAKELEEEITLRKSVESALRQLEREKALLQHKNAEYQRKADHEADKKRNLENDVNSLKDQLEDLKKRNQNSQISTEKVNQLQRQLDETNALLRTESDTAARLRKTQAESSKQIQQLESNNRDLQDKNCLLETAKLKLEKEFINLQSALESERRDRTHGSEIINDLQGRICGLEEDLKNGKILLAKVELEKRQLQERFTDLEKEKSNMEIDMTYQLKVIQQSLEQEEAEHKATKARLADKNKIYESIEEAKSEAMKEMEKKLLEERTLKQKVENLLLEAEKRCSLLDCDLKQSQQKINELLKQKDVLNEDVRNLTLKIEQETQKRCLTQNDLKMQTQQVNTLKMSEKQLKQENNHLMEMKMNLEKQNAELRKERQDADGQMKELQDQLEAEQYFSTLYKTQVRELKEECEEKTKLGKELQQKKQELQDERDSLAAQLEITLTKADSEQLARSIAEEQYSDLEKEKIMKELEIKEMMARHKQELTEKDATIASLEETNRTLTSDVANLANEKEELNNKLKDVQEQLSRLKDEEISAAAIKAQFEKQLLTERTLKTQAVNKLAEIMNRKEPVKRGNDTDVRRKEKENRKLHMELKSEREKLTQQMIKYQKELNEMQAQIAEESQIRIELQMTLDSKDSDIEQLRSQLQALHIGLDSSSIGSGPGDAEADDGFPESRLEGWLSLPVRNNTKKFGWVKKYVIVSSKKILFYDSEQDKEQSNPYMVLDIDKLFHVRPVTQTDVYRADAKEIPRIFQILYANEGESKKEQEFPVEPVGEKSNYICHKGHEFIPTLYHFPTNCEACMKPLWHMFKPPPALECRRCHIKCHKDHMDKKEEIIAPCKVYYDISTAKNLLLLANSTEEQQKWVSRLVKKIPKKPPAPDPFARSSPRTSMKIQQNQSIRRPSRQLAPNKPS

SMILES: C[C@@H](NC(=O)c1ccc(-c2ccncc2)cc1)c1cccc(C(=O)Nc2ccc3c(c2)CN(C)CC3)c1 [Compound 6]
- IC50 (MV411 cell line): 200 nM
- FLT3-ITD+ Selectivity (K562/MV411) (MV411 cell line): 40
- IC50 (ROCK2): 1.2 nM
- IC50 (K562 cell line): 8000 nM

SMILES: CN1Cc2ccc(NC(=O)c3cccc([C@@H](CO)NC(=O)c4ccc(-c5ccncc5)cc4)c3)cc2C1 [Compound 8]
- IC50 (ROCK2): 1.3 nM

SMILES: O=C(Nc1ccccc1)c1cccc([C@@H](CO)NC(=O)c2ccc(-c3ccncc3)cc2)c1 [Compound 9]
- IC50 (MV411 cell line): 800 nM
- FLT3-ITD+ Selectivity (K562/MV411) (MV411 cell line): 47
- IC50 (ROCK2): 1.7 nM
- IC50 (K562 cell line): 35000 nM

SMILES: CNC(=O)c1cccc([C@@H](CO)NC(=O)c2ccc(-c3ccncc3)cc2)c1 [Compound 11]
- IC50 (MV411 cell line): 12300 nM
- FLT3-ITD+ Selectivity (K562/MV411) (MV411 cell line): >8
- IC50 (ROCK2): 2.7 nM
- IC50 (K562 cell line): > 100000 nM

SMILES: O=C(NC1CC1)c1cccc([C@@H](CO)NC(=O)c2ccc(-c3ccncc3)cc2)c1 [Compound 12]
- IC50 (MV411 cell line): 540 nM
- FLT3-ITD+ Selectivity (K562/MV411) (MV411 cell line): >187
- IC50 (ROCK2): 1.8 nM
- IC50 (K562 cell line): > 100000 nM

SMILES: O=C(NCc1ccccc1)c1cccc([C@@H](CO)NC(=O)c2ccc(-c3ccncc3)cc2)c1 [Compound 13]
- IC50 (MV411 cell line): 3000 nM
- FLT3-ITD+ Selectivity (K562/MV411) (MV411 cell line): 9
- IC50 (ROCK2): 1.7 nM
- IC50 (K562 cell line): 27000 nM

SMILES: CN(C)Cc1cccc(NC(=O)c2cccc([C@@H](CO)NC(=O)c3ccc(-c4ccncc4)cc3)c2)c1 [Compound 14]
- IC50 (MV411 cell line): 90 nM
- FLT3-ITD+ Selectivity (K562/MV411) (MV411 cell line): 532
- IC50 (ROCK2): 1.6 nM
- IC50 (K562 cell line): 48000 nM

SMILES: CC(NC(=O)c1ccc(-c2ccncc2)cc1)c1cccc(OCC(=O)NC2CC2)c1 (stereo not shown) [Compound 15]
- IC50 (MV411 cell line): 4000 nM
- FLT3-ITD+ Selectivity (K562/MV411) (MV411 cell line): >25
- IC50 (ROCK2): 9 nM
- IC50 (K562 cell line): > 100000 nM

SMILES: CC(NC(=O)c1ccc(-c2ccncc2)cc1)c1cccc(OCC(=O)Nc2ccc3c(c2)CN(C)CC3)c1 (stereo not shown) [Compound 16]
- IC50 (MV411 cell line): 1500 nM
- FLT3-ITD+ Selectivity (K562/MV411) (MV411 cell line): 20
- IC50 (ROCK2): 3.6 nM
- IC50 (K562 cell line): 30000 nM

SMILES: COc1ccc(C(=O)N[C@H](C)c2cccc(C(=O)Nc3nc4c(s3)CN(C)CC4)c2)cc1C [Compound 17]
- IC50 (MV411 cell line): 13500 nM
- FLT3-ITD+ Selectivity (K562/MV411) (MV411 cell line): >7
- IC50 (ROCK2): 22.5 nM
- IC50 (K562 cell line): > 100000 nM

SMILES: COc1ccc(C(=O)N[C@H](CO)c2cccc(C(=O)Nc3nc4c(s3)CN(C)CC4)c2)cc1C [Compound 18]
- IC50 (MV411 cell line): 15900 nM
- FLT3-ITD+ Selectivity (K562/MV411) (MV411 cell line): >6
- IC50 (ROCK2): 19.6 nM
- IC50 (K562 cell line): > 100000 nM

SMILES: COc1ccc(C(=O)N[C@H](CO)c2cccc(C(=O)Nc3ccc4c(c3)CN(C)CC4)c2)cc1C [Compound 19]
- IC50 (MV411 cell line): 13200 nM
- FLT3-ITD+ Selectivity (K562/MV411) (MV411 cell line): 3
- IC50 (K562 cell line): 44000 nM

SMILES: CN(C)CCc1ccc(NC(=O)c2cccc([C@@H](CO)NC(=O)c3ccc(-c4ccncc4)cc3)c2)cc1 [Compound 20]
- IC50 (MV411 cell line): 10 nM
- FLT3-ITD+ Selectivity (K562/MV411) (MV411 cell line): 1585
- IC50 (ROCK2): 1.2 nM
- IC50 (K562 cell line): 16000 nM

SMILES: O=C(NCC1CCOCC1)c1cccc([C@@H](CO)NC(=O)c2ccc(-c3ccncc3)cc2)c1 [Compound 22]
- IC50 (MV411 cell line): 3800 nM
- FLT3-ITD+ Selectivity (K562/MV411) (MV411 cell line): >27
- IC50 (ROCK2): 0.57 nM
- IC50 (K562 cell line): > 100000 nM

SMILES: CN1CCC(CNC(=O)c2cccc([C@@H](CO)NC(=O)c3ccc(-c4ccncc4)cc3)c2)CC1 [Compound 23]
- IC50 (MV411 cell line): 90 nM
- FLT3-ITD+ Selectivity (K562/MV411) (MV411 cell line): 632
- IC50 (ROCK2): 0.3 nM
- IC50 (K562 cell line): 56000 nM

SMILES: COc1cccc(CN(CCN(C)C)C(=O)c2cccc([C@@H](CO)NC(=O)c3ccc(-c4ccncc4)cc3)c2)c1 [Compound 25]
- IC50 (MV411 cell line): 18900 nM

SMILES: CN1CCc2ccc(NC(=O)c3cccc([C@@H](CO)NC(=O)c4ccc(-c5ccncc5)cc4)c3)cc2C1=O [Compound 27]
- IC50 (MV411 cell line): 4400 nM
- FLT3-ITD+ Selectivity (K562/MV411) (MV411 cell line): 6
- IC50 (ROCK2): 0.39 nM
- IC50 (K562 cell line): 25000 nM

SMILES: CN1CCOc2ccc(NC(=O)c3cccc([C@@H](CO)NC(=O)c4ccc(-c5ccncc5)cc4)c3)cc2C1 [Compound 29]
- IC50 (MV411 cell line): 65100 nM

SMILES: CN(C)Cc1cccc(CNC(=O)c2cccc([C@@H](CO)NC(=O)c3ccc(-c4ccncc4)cc3)c2)c1 [Compound 33]
- IC50 (ROCK2): 0.38 nM

SMILES: COCCOc1cccc(CNC(=O)c2cccc([C@@H](CO)NC(=O)c3ccc(-c4ccncc4)cc3)c2)c1 [Compound 34]
- IC50 (ROCK2): 0.69 nM

SMILES: CN1CCc2ccc(NC(=O)c3cccc([C@@H](CO)NC(=O)c4ccc(-c5ccncc5)cn4)c3)cc2C1 [Compound 37]
- IC50 (MV411 cell line): 1700 nM
- IC50 (ROCK2): 3 nM

SMILES: CN(C(=O)c1cccc([C@@H](CO)NC(=O)c2ccc(-c3ccncc3)cc2)c1)C1CC1 [Compound 38]
- IC50 (MV411 cell line): 20000 nM
- IC50 (ROCK2): 56 nM

SMILES: C[C@@H](NC(=O)c1ccc(-c2ccncc2)cc1)c1cccc(C(=O)NCc2ccc(CN(C)C)cc2)c1 [Compound 39]
- IC50 (MV411 cell line): 10 nM
- FLT3-ITD+ Selectivity (K562/MV411) (MV411 cell line): 940
- IC50 (ROCK2): 0.3 nM
- IC50 (K562 cell line): 9400 nM

SMILES: C[C@@H](NC(=O)c1ccc(-c2ccncc2)cc1)c1cccc(C(=O)NCC2CCC(F)(F)CC2)c1 [Compound 40]
- IC50 (MV411 cell line): 3400 nM
- IC50 (ROCK2): 0.41 nM

SMILES: CN1CCc2ccc(NC(=O)c3cccc([C@@H](CO)NC(=O)c4cccc(-c5ccncc5)c4)c3)cc2C1 [Compound 41]
- IC50 (ROCK2): 6.53 nM

SMILES: CN1CCc2ccc(NC(=O)c3cccc([C@@H](CO)NC(=O)c4cccc(-c5ccn[nH]5)c4)c3)cc2C1 [Compound 42]
- IC50 (ROCK2): 72.6 nM

SMILES: CN1CCc2ccc(NC(=O)c3cccc([C@@H](CO)NC(=O)c4ccc(-c5ccn[nH]5)cc4)c3)cc2C1 [Compound 43]
- IC50 (ROCK2): 9.3 nM

SMILES: CN1CCc2ccc(NC(=O)c3cccc([C@@H](CO)NC(=O)c4ccc(-c5cccnc5)cc4)c3)cc2C1 [Compound 44]
- IC50 (ROCK2): 240 nM

SMILES: CN(C(=O)c1ccc(-c2ccncc2)cc1)[C@H](CO)c1cccc(C(=O)NC2CCCC2)c1 [Compound 45]
- IC50 (ROCK2): 257 nM

SMILES: O=C(NC1CCCC1)c1cccc([C@@H](CO)NC(=O)c2ccc(-c3cn[nH]c3)cc2)c1 [Compound 46]
- IC50 (MV411 cell line): 90 nM
- FLT3-ITD+ Selectivity (K562/MV411) (MV411 cell line): 122
- IC50 (ROCK2): 1.88 nM
- IC50 (K562 cell line): 11000 nM

SMILES: CN(C)Cc1ccc(CNC(=O)c2cccc([C@@H](CO)NC(=O)c3ccc(-c4ccncc4)cn3)c2)cc1 [Compound 47]
- IC50 (MV411 cell line): 100 nM
- FLT3-ITD+ Selectivity (K562/MV411) (MV411 cell line): 360
- IC50 (ROCK2): 0.54 nM
- IC50 (K562 cell line): 36000 nM

SMILES: O=C(NC1CCC1)c1cccc([C@@H](CO)NC(=O)c2ccc(-c3ccncc3)cc2)c1 [Compound 48]
- IC50 (MV411 cell line): 440 nM
- FLT3-ITD+ Selectivity (K562/MV411) (MV411 cell line): >230
- IC50 (ROCK2): 1.01 nM
- IC50 (K562 cell line): > 100000 nM

SMILES: C[C@@H](NC(=O)c1ccc(-c2ccncc2)cc1)c1cccc(C(=O)NCC2CCN(C)CC2)c1 [Compound 49]
- IC50 (MV411 cell line): 20 nM
- FLT3-ITD+ Selectivity (K562/MV411) (MV411 cell line): >5050
- IC50 (ROCK2): 0.3 nM
- IC50 (K562 cell line): > 100000 nM

SMILES: COc1ccc(C(=O)N[C@H](C)c2cccc(C(=O)NCC3CCN(C(C)C)CC3)c2)cc1C [Compound 68]
- IC50 (ROCK2): 104 nM

SMILES: O=C(NC1CCCC1)c1cccc([C@@H](CO)NC(=O)c2cccc(-c3cn[nH]c3)c2)c1 [Compound 83]
- IC50 (MV411 cell line): 3600 nM
- FLT3-ITD+ Selectivity (K562/MV411) (MV411 cell line): >28
- IC50 (K562 cell line): > 100000 nM

SMILES: C[C@H](c1cccc(C(=O)NC2CCCC2)c1)N(CCN(C)C)C(=O)c1ccc(-c2ccncc2)cc1 [Compound 98]
- IC50 (ROCK2): 0.23 nM

SMILES: O=C(NC1CCCC1)c1cccc([C@@H](CO)NC(=O)c2cccc(-c3cn[nH]c3)c2)c1 [Compound 106]
- IC50 (ROCK2): 20 nM

SMILES: Cc1c[nH]c2nccc(Oc3c(F)cc(Nc4cc(Cl)nc(N)n4)cc3F)c12 [Compound A, reference compound]
- IC50 (MV411 cell line): 700 nM
- IC50 (K562 cell line): 800 nM
